The results in this text go back to patent US20240228489A1, “POSITIVE ALLOSTERIC MODULATORS OF THE MUSCARINIC ACETYLCHOLINE RECEPTOR M1” (Vanderbilt University, priority 2021, published 2024).

Assay [1] deals with T1, human mAChR M1 (Homo sapiens, UniProt P11229).
T1 sequence (P11229 1-460): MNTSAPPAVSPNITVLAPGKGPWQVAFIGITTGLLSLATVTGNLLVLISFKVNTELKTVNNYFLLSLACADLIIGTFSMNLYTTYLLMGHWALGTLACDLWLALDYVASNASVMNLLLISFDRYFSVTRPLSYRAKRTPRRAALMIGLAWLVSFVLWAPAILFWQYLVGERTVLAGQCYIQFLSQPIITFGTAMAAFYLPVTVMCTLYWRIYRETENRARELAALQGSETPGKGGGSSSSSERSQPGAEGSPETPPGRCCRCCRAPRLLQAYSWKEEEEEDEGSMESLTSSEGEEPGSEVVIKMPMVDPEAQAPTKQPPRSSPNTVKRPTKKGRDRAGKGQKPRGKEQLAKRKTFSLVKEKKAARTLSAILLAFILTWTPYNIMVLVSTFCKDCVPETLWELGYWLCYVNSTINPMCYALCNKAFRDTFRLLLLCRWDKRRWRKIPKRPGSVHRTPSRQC
The assay is described as follows: mAChR M1 cell-based functional assay (calcium mobilization), PAM mode: increase in the EC20 acetylcholine response. An excerpt:
(§1) Chinese hamster ovary (CHO-K1) cells stably expressing rat (r)M1 were purchased from the American Type Culture Collection and cultured according to their indicated protocol. CHO cells stably expressing human (h)M2, hM3, and hM5 were described previously (Levey, et al., 1991); hM1 and hM4 cDNAs were purchased from Missouri S&T cDNA Resource; rM4 cDNA was provided by T. I. Bonner (National Institutes of Health, Bethesda, MD). rM2 and rM3 were cloned from a rat brain cDNA library and sequence verified. hM1, rM2, rM3, hM4, and rM4 cDNAs were used to stably transfect CHO-K1 cells purchased from the American Type Culture Collection using Lipofectamine2000. To make stable rM2, hM2, rM3, hM4, and rM4 cell lines for use in calcium mobilization assays, these cells also were stably transfected with a chimeric G-protein (Gqi5) (provided by B. R. Conklin, University of California, San Francisco) using Lipofectamine 2000. rM1, hM1, rM3, hM3, rM5, and hM5 cells were grown in Ham's F-12 medium containing 10% heat-inactivated fetal bovine serum (FBS), 20 mM HEPES, and 50 μg/mL G418 sulfate. rM2-Gqi5, hM2-Gqi5, and hM4-Gqi5 cells were grown in the same medium also containing 500 μg/mL Hygromycin B. Stable rM4-Gqi5 cells were grown in DMEM containing 10% heat-inactivated FBS, 20 mM HEPES, 400 μg/mL G418 sulfate, and 500 μg/mL Hygromycin B.
(§2) For high throughput measurement of agonist-evoked increases in intracellular calcium, CHO-K1 cells stably expressing muscarinic receptors were plated in growth medium lacking G418 and hygromycin at 15,000 cells/20 μL/well in Greiner 384-well black-walled, tissue culture (TC)-treated, clear-bottom plates (VWR). Cells were incubated overnight at 37° C. and 5% C02. The next day, cells were washed using an ELX 405 (BioTek) with four washes (80 μL) of assay buffer then aspirated to 20 μL. Next, 20 μL of 16 μM Fluo-4/acetoxymethyl ester (Invitrogen, Carlsbad, CA) prepared as a 2.3 mM stock in DMSO and mixed in a 1:1 ratio with 10% (w/v) Pluronic F-127 and diluted in assay buffer was added to the wells and the cell plates were incubated for 50 min at 37° C. and 5% C02. Dye was removed by washing with the ELX 405 (four 80 μL washes of assay buffer) then aspirated to 20 μL. Compound master plates were formatted in an 11 point CRC format (1:3 dilutions) in 100% DMSO with a starting concentration of 10 mM using the BRAVO liquid handler (Agilent). Test compound CRCs were then transferred to daughter plates (240 nL) using the Echo acoustic plate reformatter (Labcyte, Sunnyvale, CA) and then diluted into assay buffer (40 μL) to a 2× stock using a Thermo Fisher Combi (Thermo Fisher Scientific, Waltham, MA).
Calcium flux was measured using the Functional Drug Screening System (FDSS) 6000 (Hamamatsu Corporation, Tokyo, Japan) as an increase in the fluorescent static ratio. Compounds were applied to cells (20 μL, 2×) using the automated system of the FDSS 6000 at 4 s into the 300 s protocol and the data were collected at 1 Hz. At 144 s into the 300 s protocol, 10 μL of an EC20 concentration of the muscarinic receptor agonist acetylcholine was added (5×), followed by the addition of 12 μL of an EC80 concentration of acetylcholine at the 230 s time point (5×). Agonist activity was analyzed as a concentration-dependent increase in calcium mobilization upon compound addition. Emax values for agonist activity are expressed relative to the maximum for acetylcholine. Positive allosteric modulator activity was analyzed as a concentration-dependent increase in the EC20 acetylcholine response. Antagonist activity was analyzed as a concentration-dependent decrease in the EC80 acetylcholine response. Concentration-response curves were generated using a four-parameter logistical equation in XLfit curve fitting software (IDBS, Bridgewater, NJ) for Excel (Microsoft, Redmond, WA) or Prism (GraphPad Software, Inc., San Diego, CA). […]
In general terms: A change in cytosolic calcium serves as a functional read-out for many receptors and channels.

Assay [2] has as its target T1, human mAChR M1. The assay is described as follows: mAChR M1 cell-based functional assay (calcium mobilization), agonist mode: compound alone, Emax relative to acetylcholine maximum. Particulars: for Agonist Activity Human M1 EC50 / EC50: human mAChR M1; for Emax: relative to the maximum for acetylcholine; call rule not given here.
Source text: as §1, §2
Calcium flux was measured using the Functional Drug Screening System (FDSS) 6000 (Hamamatsu Corporation, Tokyo, Japan) as an increase in the fluorescent static ratio. Compounds were applied to cells (20 μL, 2×) using the automated system of the FDSS 6000 at 4 s into the 300 s protocol and the data were collected at 1 Hz. At 144 s into the 300 s protocol, 10 μL of an EC20 concentration of the muscarinic receptor agonist acetylcholine was added (5×), followed by the addition of 12 μL of an EC80 concentration of acetylcholine at the 230 s time point (5×). Agonist activity was analyzed as a concentration-dependent increase in calcium mobilization upon compound addition. Emax values for agonist activity are expressed relative to the maximum for acetylcholine. Positive allosteric modulator activity was analyzed as a concentration-dependent increase in the EC20 acetylcholine response. Antagonist activity was analyzed as a concentration-dependent decrease in the EC80 acetylcholine response. Concentration-response curves were generated using a four-parameter logistical equation in XLfit curve fitting software (IDBS, Bridgewater, NJ) for Excel (Microsoft, Redmond, WA) or Prism (GraphPad Software, Inc., San Diego, CA).

In general, EC50 refers to the midpoint of the concentration-response curve. Usually Emax stands for the greatest response seen or fitted, relative to the assay's reference. Take `[2H]C1([2H])c2ncccc2C(=O)N1Cc1c(F)cc(-c2cc(F)cc3nn(C([2H])([2H])[2H])cc23)cc1F` [Compound 86, 6-(2,6-difluoro-4-(6-fluoro-2-(methyl-d3)-2H-indazol-4-yl)benzyl)-6,7-dihydro-5H-pyrrolo[3,4-b]pyridin-5-one-7,7-d2]: at human mAChR M1 [1], the EC50 is 237 nM and the Emax was 46%. Moreover, at human mAChR M1 [2], the “Agonist Activity Human M1 EC50” value is reported as “Inactive” and the Emax worked out at 2%.
As to `[2H]C1([2H])c2ncccc2C(=O)N1Cc1c(F)cc(-c2cccc3nn(C([2H])([2H])[2H])cc23)cc1C(F)(F)F` [Compound 226, 6-(2-fluoro-4-(2-(methyl-d3)-2H-indazol-4-yl)-6-(trifluoromethyl)benzyl)-6,7-dihydro-5H-pyrrolo[3,4-b]pyridin-5-one-7,7-d2], at human mAChR M1 [1], the concentration giving a half-maximal response (EC50) was 1360 nM and the Emax was found to be 54%. For the same compound, on human mAChR M1 [2], the “Agonist Activity Human M1 EC50” value was “Inactive” and the Emax worked out at 2%.
For `[2H]C1([2H])c2ncccc2C(=O)N1Cc1c(F)cc(-c2cncc3nn(C)cc23)cc1F` [Compound 119, 6-(2,6-difluoro-4-(2-methyl-2H-pyrazolo[3,4-c]pyridin-4-yl)benzyl)-6,7-dihydro-5H-pyrrolo[3,4-b]pyridin-5-one-7,7-d2] the same measures were ≥ 10000 nM, 63%, “Inactive” and 3%.
With `[2H]C1([2H])c2ncccc2C(=O)N1Cc1c(C)cc(-c2ccc3nn(C)cc3c2)cc1F` [Compound 194, 6-(2-fluoro-6-methyl-4-(2-methyl-2H-indazol-5-yl)benzyl)-6,7-dihydro-5H-pyrrolo[3,4-b]pyridin-5-one-7,7-d2], the EC50 on human mAChR M1 [1] is 437 nM; on human mAChR M1 [2] it was 3550 nM. The Emax on human mAChR M1 [1] is 83%; on human mAChR M1 [2], 18%.
On to `[2H]C([2H])([2H])Oc1cnc2c(c1)C(=O)N(Cc1c(F)cc(-c3cccc4nn(C([2H])([2H])[2H])cc34)cc1F)C2([2H])[2H]` [Compound 78, 6-(2,6-difluoro-4-(2-(methyl-d3)-2H-indazol-4-yl)benzyl)-3-(methoxy-d3)-6,7-dihydro-5H-pyrrolo[3,4-b]pyridin-5-one-7,7-d2], for which, at human mAChR M1 [1], the concentration for a half-maximal effect (EC50) was 100 nM and the Emax was 77%. For the same compound, on human mAChR M1 [2], the “Agonist Activity Human M1 EC50” value is listed as “Inactive” and the Emax turned out to be 6%.
For `[2H]C1([2H])c2ncccc2C(=O)N1Cc1c(F)cc(-c2cc(F)c(F)c3nn(C([2H])([2H])[2H])cc23)cc1F` [Compound 106, 6-(4-(6,7-difluoro-2-(methyl-d3)-2H-indazol-4-yl)-2,6-difluorobenzyl)-6,7-dihydro-5H-pyrrolo[3,4-b]pyridin-5-one-7,7-d2], at human mAChR M1 [1], the EC50 came to 140 nM and the maximum response (Emax) amounted to 30%. Moreover, on human mAChR M1 [2], the “Agonist Activity Human M1 EC50” value was “Inactive” and the maximal response (Emax) amounted to 2%.
For the compound `[2H]C1([2H])c2ncccc2C(=O)N1Cc1c(F)cc(-c2ccc(OCCOC3CC3)c3nn(C)cc23)cc1F` [Compound 150, 6-(4-(7-(2-cyclopropoxyethoxy)-2-methyl-2H-indazol-4-yl)-2,6-difluorobenzyl)-6,7-dihydro-5H-pyrrolo[3,4-b]pyridin-5-one-7,7-d2], at human mAChR M1 [1], the half-maximal effective concentration (EC50) is 777 nM and the Emax came to 80%. Besides, on human mAChR M1 [2], the concentration for a half-maximal effect (EC50) is ≥ 10000 nM and the Emax was found to be 22%.
On to `[2H]C1([2H])c2ncccc2C(=O)N1Cc1c(F)cc(-c2ccc(OC3CN(CCCC)C3)c3nn(C)cc23)cc1F` [Compound 184, 6-(4-(7-((1-butylazetidin-3-yl)oxy)-2-methyl-2H-indazol-4-yl)-2,6-difluorobenzyl)-6,7-dihydro-5H-pyrrolo[3,4-b]pyridin-5-one-7,7-d2], for which, at human mAChR M1 [1], the EC50 turned out to be 512 nM and the Emax was determined as 87%. In addition, on human mAChR M1 [2], the “Agonist Activity Human M1 EC50” value is listed as “Inactive” and the Emax turned out to be 5%.
For `[2H]C1([2H])c2ncccc2C(=O)N1Cc1ccc(-c2cc3cn(C)nc3cc2F)cc1F` [Compound 24, 6-(2-fluoro-4-(6-fluoro-2-methyl-2H-indazol-5-yl)benzyl)-6,7-dihydro-5H-pyrrolo[3,4-b]pyridin-5-one-7,7-d2] the same measures were 3600 nM, 69%, “Inactive” and 2%.
Take `[2H]C1([2H])c2ncccc2C(=O)N1Cc1c(F)cc(-c2cn(C)c(=O)c3nn(C([2H])([2H])[2H])cc23)cc1F` [Compound 91, 4-(3,5-difluoro-4-((5-oxo-5,7-dihydro-6H-pyrrolo[3,4-b]pyridin-6-yl-7,7-d2)methyl)phenyl)-6-methyl-2-(methyl-d3)-2,6-dihydro-7H-pyrazolo[3,4-c]pyridin-7-one]: on human mAChR M1 [1], the 50% effective concentration (EC50) came to 718 nM and the maximum response (Emax) was found to be 84%. Further, at human mAChR M1 [2], the EC50 is 7740 nM and the Emax was determined as 22%.
Regarding `[2H]C1([2H])c2ncccc2C(=O)N1Cc1c(F)cc(-c2cc(F)c(F)c3c2cnn3C([2H])([2H])[2H])cc1F` [Compound 252, 6-(4-(6,7-difluoro-1-(methyl-d3)-1H-indazol-4-yl)-2,6-difluorobenzyl)-6,7-dihydro-5H-pyrrolo[3,4-b]pyridin-5-one-7,7-d2], on human mAChR M1 [1], the 50% effective concentration (EC50) is > 10000 nM and the maximum response (Emax) turned out to be 15%. Besides, on human mAChR M1 [2], the “Agonist Activity Human M1 EC50” value is on record as “Inactive” and the maximal response (Emax) stood at 2%.
For `[2H]C1([2H])c2ncccc2C(=O)N1Cc1c(F)cc(-c2ccc(OC)c3nn(C([2H])([2H])[2H])cc23)cc1C1CC1` [Compound 209, 6-(2-cyclopropyl-6-fluoro-4-(7-methoxy-2-(methyl-d3)-2H-indazol-4-yl)benzyl)-6,7-dihydro-5H-pyrrolo[3,4-b]pyridin-5-one-7,7-d2], the figures for the EC50 on human mAChR M1 [1] and at human mAChR M1 [2] were 769 nM and 2580 nM, respectively. Besides, the Emax was found to be 83% on human mAChR M1 [1] and 62% at human mAChR M1 [2].
